Results reported in a melting point compilation (Tetko et al.).

SMILES	melting point
O=C(O)CCCCl	16 °C
O=C(c1ccc(C(F)(F)F)cc1)c1cccc(C(F)(F)F)c1	94 to 98 °C
Cc1ccc2sc(CO)cc2c1	93 to 94 °C
CSCCC(N)C(=O)O (stereo unspecified)	281 °C
O=C(O)C(O)(c1ccccc1)C1CCCCC1 (stereo unspecified)	163 to 164 °C
CCOC(=O)C=Cc1ccc([N+](=O)[O-])cc1	139 °C
CS(=O)(=O)c1cc(C(F)(F)F)ccc1C(=O)c1cnoc1C1CC1	140 °C
CCCCCCCCCCCCCCCCCC[Si](C)(C)Cl	30 °C
Cc1nnc(S)n1-c1ccc(OCc2ccccc2)cc1	255 to 257 °C
N#Cc1ccc(-n2ccnc2)cc1	151 to 153 °C
N#CCOc1cccc(Cl)c1	29 °C
C=C(C)CCCCCCC	-64 °C
O=C(O)c1nsc(Cl)c1Cl	169 °C
N#CCCP(CCC#N)c1ccccc1	73 °C
CCOC(=O)c1c(N)sc2c1CCC2	90 to 94 °C
CSc1sc(C(N)=S)c2c1C(=O)CCC2	232 to 233 °C
CC1CCCCS1 (stereo unspecified)	-58 °C
O=C(O)Cc1ccc2c(c1)NC(=O)C2	238 °C
CCOC(=O)c1cc(C(C)=O)ccc1OCC	53 °C
Brc1ccc(Oc2ccccc2Br)c(Br)c1	< 20 °C
COc1ccc(CC(=O)O)cc1OCc1ccccc1	126 °C
C=C[Si](OC(C)=O)(OC(C)=O)OC(C)=O	7 °C

SMILES	melting point
COc1cc(C=O)ccc1OC1OC(CO)C(O)C(O)C1O (stereo unspecified)	189 °C
O=Cc1c(F)c(F)c(F)c(F)c1F	25.5 °C
O=C(Cl)c1ccc2noc(-c3ccc(Cl)cc3)c2c1	180 °C
CNc1cc(=O)oc2ccccc12	198 °C
CCCCCCC(CCCCCC)CCCCCC	-28.3 °C
CSc1nc(N=Cc2ccc([N+](=O)[O-])cc2)nn1C	194 to 196 °C
COc1cc(F)ccc1C(C)=O	52 °C
CC1(C)OC(C)(C(O)(c2cccc3ccccc23)c2cccc3ccccc23)CCC1C(=O)O (stereo unspecified)	210 to 211 °C
COC(=O)c1ccc(C(=O)Cl)cc1	53 to 59 °C
Brc1cc(Br)ncn1	51 °C
CC(C)(C)C(=O)Nc1ccccc1Cc1ccccc1	86 to 90 °C
O=Cc1ccc(-c2ccsc2)cc1	101 to 102 °C
NC(=S)Nc1ccc(O)cc1	214 °C
NC(=S)Nc1cccc([N+](=O)[O-])c1	189 to 190 °C
O=[N+]([O-])c1ccccc1C(Cl)C(Cl)c1ccccn1 (stereo unspecified)	144 °C
O=[N+]([O-])c1ccc(N2CCNCC2)c(Cl)c1	105 to 106 °C
CCCCCCCCCCCCN(CCCCCCCCCCCC)CCCCCCCCCCCC	16 °C
Sc1nnc(-c2ccco2)n1-c1ccc2c(c1)OCCO2	237 to 240 °C
O=[N+]([O-])c1ccccc1OC1OC(CO)C(O)C(O)C1O (stereo unspecified)	195 °C
NC1CCC(CC2CCC(N)CC2)CC1 (stereo unspecified)	64.7 °C
CCC(=O)OCC(C)C	-71.4 °C
NC(=O)NN=C(O)Cc1ccccc1	168 °C

SMILES	melting point
O=Cc1c[nH]c2c(C(=O)O)cccc12	308 to 309 °C
CCOC(=O)CCCCCCCC(=O)OCC	-18.5 °C
ClCc1nc(-c2cccs2)no1	59 to 60 °C
CC1=NNC(=O)N(N=Cc2cccnc2)C1	217 °C
c1ccc2c(c1)OCCOCCNCCOCCO2	147 to 149 °C
CC1(C)C2CCC1(C)C(N=C1C(=O)Nc3ccccc31)C2N=C1C(=O)Nc2ccccc21 (stereo unspecified)	234 °C
ClCc1nnc(-c2ccc(Cl)cc2)o1	81 to 85 °C
O=C(Nc1ccc([N+](=O)[O-])cc1Cl)c1cc(Cl)ccc1O	230 °C
NCc1cc2cc(Br)ccc2o1	39 to 40 °C
O=C(NC(=O)c1c(F)cccc1F)Nc1cc(Cl)c(Oc2ncc(C(F)(F)F)cc2Cl)c(Cl)c1	223 °C
Nc1ccc(-c2ccc(Cl)cc2)cc1	134 °C
CCn1cc(C(=O)O)c(=O)c2cnc(N3CCNCC3)nc21	254 °C
NC(=O)Cc1cccs1	147 °C
N#Cc1ccc(F)cc1Br	76 °C
CCOC(=O)C(=CNc1cc(C)nn1C)C(=O)OCC	85 to 88 °C
O=C(O)c1cc2cc(O)ccc2[nH]1	249 °C
CCc1nc(NC(=O)NS(=O)(=O)c2cccs2)nc(Cl)c1C	187 to 188 °C
CC(C)(C)OC(=O)N1Cc2ccccc2C[C@H]1C(=O)O	125 to 126 °C
S=C(NN=Cc1c(-c2ccc(Cl)cc2)[nH]c2ccccc12)Nc1ccccc1	211 to 212 °C
Cc1ccc(OC(C)(C)C(=O)O)c2c1CCC2	89 to 90 °C
O=C(Nc1ccccc1CCc1ccccc1)c1ccccc1	166 °C
c1ccc(-c2cnc(-c3cccc4ccccc34)o2)cc1	104 to 106 °C

SMILES	melting point
Cc1ccc(OCCCCBr)cc1	40 °C
CC(C)(C)P(=O)(O)O	188 to 192 °C
O=C1NC(=O)C([N+](=O)[O-])C(=O)N1	180 °C
N#CSc1ccc([N+](=O)[O-])c(C(=O)O)c1	156 to 160 °C
COC(=O)C(C(=O)OC)=C1SC2=C(C(=O)c3ccccc3C2=O)N1c1ccccc1	239 °C
COc1ccccc1-n1ncc2c(=O)[nH]cnc21	270 to 271 °C
Brc1ccc2occ(Br)c2c1	77 to 78 °C
O=C(O)c1ccnc(C(=O)O)c1C(=O)O	250 °C
CC1C(=O)OC(C)(C)OC1=O	109 to 113 °C
O=C(O)c1ccc(F)cc1C(F)(F)F	123 °C
Cc1cc(N=Nc2ccccc2C)ccc1N	101 to 102 °C
O=C(O)Cc1ccccc1C(F)(F)F	100 to 102 °C
Cc1ccc(N=C(Nc2ccc(C)cc2)c2cc(C(C)(C)C)c(O)c(C(C)(C)C)c2)cc1	207 °C
CCC(C)=NNc1ccc([N+](=O)[O-])cc1[N+](=O)[O-]	117 °C
COc1ccc(C(=O)/C=C/c2cccc(OC)c2OC)c(O)c1	99.5 °C
O=C(O)C1(C(=O)O)CC1	134 to 138 °C
CCCCCCOc1ccc(N)cc1	44 °C
OCC1OC(OC2C(CO)OC(O)C(O)C2O)C(O)C(O)C1O (stereo unspecified)	256 to 258 °C
O=C(C(=S)Nc1ccc(Cl)cc1)c1ccccc1	222 to 223 °C
CC(OC/C(=N\NC(N)=O)c1ccccc1)=C(C#N)c1ccccc1	156 to 158 °C
CCNC(C)Cc1cccc(C(F)(F)F)c1 (stereo unspecified)	110 °C
O=[N+]([O-])c1ccc(S(=O)(=O)Cl)cc1	78 °C

SMILES	melting point
O=C(OCc1ccccc1)c1cccnc1	22 °C
Cc1ccc(N2CCNCC2)cc1	29 to 34 °C
Cc1ccc(C(N)=S)cc1	163 to 168 °C
Cc1nc(I)c(I)[nH]1	194 to 195 °C
CCOC(=O)C1=C(C)NC(C)=C(C(=O)OCC)C1	180 °C
CC(CC(N)C(=O)O)C(F)(F)F (racemic)	273 to 275 °C
O=C(O)/C=C/c1cccc2c(Br)ccc([N+](=O)[O-])c12	141 to 142 °C
CC(C)NC(=O)CN1CCNCC1	82 to 88 °C
O=CC(Cl)(Cl)Cl	-57.5 °C
O=C(C1=NOC2C(=O)N(c3ccc(O)cc3)C(=O)C12)c1ccc([N+](=O)[O-])cc1 (stereo unspecified)	213 °C
CCOC(=O)c1c[nH]cc1C	74 °C
CCOC(=O)C1=C(C)OC(N)=C(C#N)C1c1ccc(N2CCOCC2)cc1 (stereo unspecified)	152 to 159 °C
Cc1c(C)c(C)c2c(c1C)CC2=O	160 to 161 °C
Cc1ccccc1N1CCNCC1	48 to 52 °C
COC(=O)c1ccccc1S(N)(=O)=O	125 to 127 °C
COc1ccc(Cl)c(Cl)c1	-8 °C
CC1(C)C(=O)NC1c1ccccc1 (stereo unspecified)	150 °C
CC(=O)Nc1ccc2c(c1)Cc1cc([N+](=O)[O-])ccc1-2	262 °C
Nc1ccc2c(c1)C(=O)c1ccc(N)cc1C2=O	325 °C
C=CCN(CC=C)c1c(C)cc(OC(=O)NC)cc1C	67 °C
O=C1c2ccccc2C(=O)N1Cc1ccccc1	116 °C
O=C(O)c1ccncc1	315 °C

SMILES	melting point
CCOC(=O)c1cnc2c(c(C)nn2C)c1Oc1ccc(OC)cc1	92 to 93.5 °C
Nc1c(Br)cc(F)c(F)c1F	58 to 60 °C
CN(C)S(=O)(=O)N(SC(F)(Cl)Cl)c1ccccc1	106 °C
N#C/C(=C\c1ccc(F)cc1)c1nc2ccccc2c(=O)[nH]1	305 to 306 °C
Cc1nc(Cl)nc(N)c1N	249 to 252 °C
CSc1ncnc2c1ncn2C1OC(CO)C(O)C1O (stereo unspecified)	164 °C
c1ccc(-c2ccncc2)cc1	77.5 °C
N#C/C(=C/c1cccnc1)c1nc(-c2ccc(Cl)cc2)cs1	253 °C
Nc1ccc(C(=O)O)cc1F	215 °C
CC(Cc1ccc(O)c(O)c1)C(C)Cc1ccc(O)c(O)c1 (stereo unspecified)	186 °C
Cc1cc(NS(=O)(=O)c2ccc(N)cc2)n(-c2ccccc2)n1	195 °C
Cc1ccncc1C=NO	180 °C
Cc1ccc(S(=O)(=O)N(C)Cc2ccc(N)cc2)cc1	155 °C
Ic1ncc[nH]1	191 °C
C=CC(=O)NC(C)C	64 °C
O=C(O)c1cccc2c1C(=O)c1ccccc1-2	194 to 198 °C
O=C(Cl)c1nc2ccccc2s1	150 °C
CCCCCCCCCCCCCCCC=O	35 °C
Cn1nc(C(=O)Cl)c2ccccc21	126 °C
O=[N+]([O-])c1cc(S(=O)(=O)Nc2ccccc2)ccc1Nc1ccccc1	156 °C
O=C(O)CNCCNCC(=O)O	224 to 225 °C
